# Source: US20010012854A1, “MULTICATALYTIC PROTEASE INHIBITORS FOR USE AS ANTI-TUMOR AGENTS” (priority 1997, published 2001)
# Test system: human breast cancer MCF-7 cells
# Test: Detachment and apoptotic nuclear changes in MCF-7 cells
# Type: cell-based
# Conditions: MCF-7, 24 h
# Protocol: c. Treatment of cells with MCP inhibitor. Cells were treated with a specified MCP Inhibitor, a standard anticancer agent (etoposide or cisplatin), or DMSO (vehicle). During this process, morphological changes and cellular detachment (for attached cell lines) were monitored. At each time point, cells were harvested, and used for measurement of apoptosis and other biochemical events. In Example 1, infra, involving YVAD-CMK, Compound A was first added to Jurkat T cells. This was followed immediately by dividing the cells into multiple tissue culture flasks. YVAD-CMK was then added to an indicated concentration.
# d. Flow cytometry nuclear staining and DNA fragmentation assays. DNA content analysis using flow cytometry was performed as described previously (Nicoletti, I., et al. J. Immunol. Methods 139:271-279, 1992). To assay nuclear morphology, cells were washed with PBS, fixed with 70% ethanol for 1 h, and stained with Hoechst 33258 (1 mM) for 30 min. The nuclear morphology of cells was visualized by fluorescence microscope (OLYMPUS BH2). DNA fragmentation was assayed as described previously (Grant, S., et al. Cancer Res. 52:6270-6278, 1992).
# Detachment was also found in at least half of human breast cancer MDA-MB-231 and MCF-7 cells, after exposure to Compound A for 24 h.
compound,measurement,value
CC(C)C[C@@H](C=O)NC(=O)[C@@H](CCCNC(=N)N[N+](=O)[O-])NC(=O)C(CCCCCCCCN1C(=O)c2ccccc2C1=O)C1CCCC1 (some centres unmarked) [Compound A],Apoptosis by nuclear staining,apoptotic morphology in all of the detached and most of the attached cells
same,Detached cells,at least half
